The values below come from patent US20100137315A1, “Sphingosine Kinase Inhibitors and Methods of Their Use” (APOGEE BIOTECHNOLOGY CORPORATION, priority 2005, published 2010).

Experiment [1] has as its target T1, recombinant human SK (Homo sapiens, UniProt Q9NYA1).
T1 construct: glutathione-S-transferase (GST) (N); made in house; host or cells: bacteria (pGEX vector)
Kind of experiment: Inhibition of recombinant human SK, LC/MS/MS assay. Type of experiment: biochemical. The settings on record: 6 μg/ml compound. On the procedure: (§1) An assay for identifying inhibitors of recombinant human SK has been established (French et al., 2003, Cancer Res 63: 5962). cDNA for human SK was subcloned into a pGEX bacterial expression vector, which results in expression of the enzyme as a fusion protein with glutathione-S-transferase, and the fusion protein is then purified on a column of immobilized glutathione. SK activity is measured by incubation of the recombinant SK with [^3H]sphingosine and 1 mM ATP under defined conditions, followed by extraction of the assay mixture with chloroform:methanol under basic conditions. […] Radioactivity in aliquots of the aqueous phase is then quantified as a measure of [^3H]S1P formation. There is a low background level of partitioning of [^3H]sphingosine into the aqueous phase, and addition of the recombinant SK greatly increases the formation of [^3H]S1P.
In an alternate assay procedure, the recombinant human SK was incubated with unlabeled sphingosine and ATP as described above. After 30 minutes, the reactions were terminated by the addition of acetonitrile to directly extract the newly synthesized S1P. The amount of S1P in the samples is then quantified as follows. C17 base D-erythro-sphingosine and C17 S1P are used as internal standards for sphingosine and S1P, respectively. These seventeen-carbon fatty acid-linked sphingolipids are not naturally produced, making these analogs excellent standards. The lipids are then fractionation by High-Performance Liquid Chromatography using a C8-reverse phase column eluted with 1 mM methanolic ammonium formate/2 mM aqueous ammonium formate. A Finnigan LCQ Classic LC-MS/MS is used in the multiple reaction monitoring positive ionization mode to acquire ions at m/z of 300 (precursor ion)→282 (product ion) for sphingosine and 380→264 for S1P. Calibration curves are generated by plotting the peak area ratios of the synthetic standards for each sphingolipid, and used to determine the normalized amounts of sphingosine and S1P in the samples.
Each Compound of this invention was tested for its ability to inhibit recombinant SK using the LC/MS/MS assay described above. Typically, the Compounds were individually dissolved in dimethylsulfoxide and tested at a final concentration of 6 micrograms/ml.

The subject of experiment [2] is MCF-7 human breast adenocarcinoma cells. Kind of experiment: Cytotoxicity, SRB assay, 48 h. It counts as cell-based. The settings on record: Homo sapiens, MCF7; Table 6; 48 h, SRB, inhibition of cell proliferation; read-out: MCF-7 IC50. The protocol: To further assess the biological efficacies of the Compounds in intact cells, each Compound was evaluated for cytotoxicity using human cancer cell lines. These experiments followed methods that have been extensively used. Cell lines tested included MCF-7 human breast adenocarcinoma cells. The indicated cell lines were treated with varying doses of the test Compound for 48 h. Cell survival was then determined using the SRB binding assay (Skehan et al., 1990, J Natl Cancer Inst 82: 1107), and the concentration of compound that inhibited proliferation by 50% (the IC50) was calculated. Values (in μM) represent the mean±sd for replicate trials.
(The SRB assay estimates cell density from bound dye.)

The subject of experiment [3] is endogenous SK in MDA-MB-231 human breast carcinoma cells. Kind of experiment: Intact cell assay of endogenous SK ([3H]sphingosine to [3H]S1P). It counts as cell-based. Conditions: MDA-MB-231 cells, 20 μg/ml compound. The protocol:
We have previously described an intact cell assay where, following treatment with a test compound, MDA-MB-231 human breast carcinoma cells are incubated with [^3H]sphingosine at a final concentration of 1 μM (French et al., 2003, Cancer Res 63: 5962). The cells take up the exogenous [^3H]sphingosine and convert it to [^3H]S1P through the action of endogenous SK. The resulting [^3H]S1P is isolated via charge-based separation as indicated above. […] For potency studies, MDA-MB-231 cells were exposure to varying concentrations of a test Compound and then assayed for conversion of [^3H]sphingosine to [^3H]S1P.

Experiment [4] addresses T1, recombinant human SK. Kind of experiment: Recombinant human SK assay with [3H]sphingosine. Type of experiment: biochemical. Conditions: positive control. On the procedure:
as §1

T1 sequence (Q9NYA1 whole entry): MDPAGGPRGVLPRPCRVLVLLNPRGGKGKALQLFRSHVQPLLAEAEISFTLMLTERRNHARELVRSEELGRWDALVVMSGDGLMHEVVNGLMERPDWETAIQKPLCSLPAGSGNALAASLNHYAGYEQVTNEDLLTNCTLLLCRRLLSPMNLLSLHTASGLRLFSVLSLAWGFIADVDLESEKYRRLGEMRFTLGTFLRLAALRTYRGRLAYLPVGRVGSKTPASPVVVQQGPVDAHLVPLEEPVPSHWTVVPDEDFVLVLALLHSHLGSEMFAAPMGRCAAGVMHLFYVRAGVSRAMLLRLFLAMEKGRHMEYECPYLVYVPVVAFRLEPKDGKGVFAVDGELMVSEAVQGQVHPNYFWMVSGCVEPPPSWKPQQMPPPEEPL

Regarding `Clc1ccc(-c2csc(N(CCCc3ccccc3)CCCc3ccccc3)n2)cc1` [Compound 71, [4-(4-Chloro-phenyl)-thiazol-2-yl]-bis-(3-phenyl-propyl)-amine], the inhibition at 6 µg/mL at recombinant human SK [1] is 44%. In addition, in experiment [2], the IC50 stood at 111 µM.
The like results for `CCCC(=O)Oc1ccccc1C=CC(=O)Nc1nc(-c2ccc(Cl)cc2)cs1` [Compound 13, Butyric acid 2-{2-[4-(4-chloro-phenyl)-thiazol-2-ylcarbamoyl]-vinyl}-phenyl ester] were, in that order, 0% and 2.3 µM.
`CCCCCCCCCCCCCCCC(=O)Nc1nc(-c2ccc(Cl)cc2)cs1` [Compound 3, Hexadecanoic acid [4-(4-chloro-phenyl)-thiazol-2-yl]-amide]: the inhibition at 6 µg/mL at recombinant human SK [1] amounted to 88%. Also, in experiment [2], the IC50 stood at 111 µM. For the same molecule, in experiment [3], the “Cellular S1P (% inhibition)” value was determined as 34%.
Regarding `CCCC(=O)Oc1ccc(C=CC(=O)Nc2nc(-c3ccc(Cl)cc3)cs2)cc1` [Compound 15, Butyric acid 4-{2-[4-(4-chloro-phenyl)-thiazol-2-ylcarbamoyl]-vinyl}-phenyl ester], on recombinant human SK [1], the inhibition at 6 µg/mL was 73%. Further, the IC50 in experiment [2] is 2.9 µM.
With `CCCCCCCCCCCCC/C=C/[C@@H](O)[C@H](CO)N(C)C` [DMS, D-erythro-N,N-dimethylsphingosine], the “concentrations at which SK activity is completely inhibited” value on recombinant human SK [4] is on record as “above 25 μM”.
As to `CCCCCCCCC=CCCCCCCCC(=O)Nc1nc(-c2ccc(Cl)cc2)cs1` [Compound 6, Octadec-9-enoic acid [4-(4-chloro-phenyl)-thiazol-2-yl]-amide], on recombinant human SK [1], the inhibition at 6 µg/mL was 0%. In addition, the half-inhibitory concentration (IC50) in experiment [2] turned out to be 105 µM.
The like results for `CCCC(=O)Oc1ccc(CC(=O)Nc2nc(-c3ccc(Cl)cc3)cs2)cc1[N+](=O)[O-]` [Compound 30, Butyric acid 4-{[4-(4-chloro-phenyl)-thiazol-2-ylcarbamoyl]-methyl}-2-nitro-phenyl ester] were, in that order, 0% and 32 µM.
The like results for `O=C(C=Cc1ccccc1)Nc1nc(-c2ccc(Cl)cc2)cs1` [Compound 7, N-[4-(4-Chloro-phenyl)-thiazol-2-yl]-3-phenyl-acrylamide] were, in that order, 71% and 18 µM.
The corresponding values for `COc1cc(C=CC(=O)Nc2nc(-c3ccc(Cl)cc3)cs2)ccc1OC(C)=O` [Compound 10, Acetic acid 4-{2-[4-(4-chloro-phenyl)-thiazol-2-ylcarbamoyl]-vinyl}-2-methoxy-phenyl ester] are 100% and 24 µM.
As to `O=C(Nc1nc2cc(Cl)ccc2o1)c1cccc(F)c1` [Compound 97, N-(5-Chloro-benzooxazol-2-yl)-3-fluoro-benzamide], the inhibition at 6 µg/mL on recombinant human SK [1] is 71%. The half-maximal inhibitory concentration (IC50) in experiment [2] was found to be 1.7 µM.
On to `CCCCCCCCCCCCCC(=O)Nc1nc(-c2ccc(Cl)cc2)cs1` [Compound 2, Tetradecanoic acid [4-(4-chloro-phenyl)-thiazol-2-yl]-amide], for which, at recombinant human SK [1], the inhibition at 6 µg/mL worked out at 30%. For the same molecule, the IC50 in experiment [2] worked out at 1.9 µM.
The corresponding values for `O=C(C=Cc1ccc([N+](=O)[O-])cc1)Nc1nc(-c2ccc(Cl)cc2)cs1` [Compound 5, N-[4-(4-Chloro-phenyl)-thiazol-2-yl]-3-(4-nitro-phenyl)-acrylamide] are 0% and 16 µM.
The corresponding values for `CCCC(=O)Oc1ccc(CCC(=O)Nc2nc(-c3ccc(Cl)cc3)cs2)cc1OC` [Compound 29, Butyric acid 4-{2-[4-(4-chloro-phenyl)-thiazol-2-ylcarbamoyl]-ethyl}-2-methoxy-phenyl ester] are 0% and 26 µM.

The term inhibition denotes how much of the control response was suppressed. In general, IC50 refers to the point on the concentration scale where inhibition reaches its midpoint.
